BindingDB's records for PubMed 31434879 (University of California Irvine (UCI))

Legend:
[1] = Inhibition of FLT3 (unknown origin) expressed in mouse BaF3 cells assessed as inhibition of FLT3 ligand-FLT3 dependent cell proliferation incubated for 3 days by ATPlite 1step Luminescence Assay reagent based assay
[2] = Inhibition of FLT3-ITD (unknown origin) expressed in mouse BaF3 cells assessed as inhibition of FLT3-ITD dependent cell proliferation incubated for 3 days by ATPlite 1step Luminescence Assay reagent based assay

COc1ncc(F)cc1CNc1ccc(Cc2c[nH]c3ncc(C)cc23)c(F)n1 [US9096593, P-2049]
IC50 [1]: > 10 µM
IC50 [2]: > 10 µM
